Where two headings read alike, the source gives them in different places.
Legend:
[1] = Water content / TG-FTIR analysis
Description: Thermogravimetric measurements were carried out with a Netzsch Thermo-Microbalance TG 209 coupled to a Bruker FTIR Spectrometer Vector 22 (sample pans with a pinhole, N2 atmosphere, heating rate 10 K/min).

[2] = 25° C./60% rh; for Pyrazino-s-triazine derivative of 4α-hydroxy-5-methyl-THF (MeFox) (% w/w): major degradation product
Description: Additionally the content of the pyrazino-s-triazine derivative of 4α-hydroxy-5-methyl-THF (MeFox), a major degradation product, was measured by HPLC at periodic intervals and disclosed as absolute values (% w/w).

[3] = for Pyrazino-s-triazine derivative of 4α-hydroxy-5-methyl-THF (MeFox) (% abs.): 40° C./75% rh, major degradation product
Description: The content of 5-methyl-(6S)-tetrahydrofolic acid remaining in the sample was measured by HPLC at periodic intervals. The content of 5-methyl-(6S)-tetrahydrofolic acid remaining was also compared to the initial value at the time of preparation (% rel.). Additionally the content of the pyrazino-s-triazine derivative of 4α-hydroxy-5-methyl-THF (MeFox), a major degradation product, was measured by HPLC at periodic intervals and disclosed as absolute values (% w/w).

[4] = Experimental: DVS measurements are typically performed with an SPS11-100n “Sorptions Prüfsystem” from ProUmid (formerly “Projekt Messtechnik”), August-Nagel-Str. 23, 89079 Ulm (Germany).
DVS measurements were performed with an SPS11-100n “Sorptions Prüfsystem” from ProUmid (formerly “Projekt Messtechnik”), August-Nagel-Str. 23, 89079 Ulm (Germany).

water content (generally) ([1]; general statement): more than 10%
water content ([1]; measured on a sample): 12.4%
Pyrazino-s-triazine derivative of 4α-hydroxy-5-methyl-THF (MeFox) (% w/w) ([2]; 0 months): 0.20 % w/w
Pyrazino-s-triazine derivative of 4α-hydroxy-5-methyl-THF (MeFox) (% w/w) ([2]; 3 months): 0.59 % w/w
Pyrazino-s-triazine derivative of 4α-hydroxy-5-methyl-THF (MeFox) (% w/w) ([2]; 6 months): 0.71 % w/w
Pyrazino-s-triazine derivative of 4α-hydroxy-5-methyl-THF (MeFox) (% w/w) ([2]; 9 months): 0.68 % w/w
content of MeFox ([2]; already before reaching 9 months): over 0.6%
Pyrazino-s-triazine derivative of 4α-hydroxy-5-methyl-THF (MeFox) (% abs.) ([3]; 0 months): 0.20 % abs.
Pyrazino-s-triazine derivative of 4α-hydroxy-5-methyl-THF (MeFox) (% abs.) ([3]; 3 months): 0.72 % abs.
Pyrazino-s-triazine derivative of 4α-hydroxy-5-methyl-THF (MeFox) (% abs.) ([3]; 6 months): 0.80 % abs.
Pyrazino-s-triazine derivative of 4α-hydroxy-5-methyl-THF (MeFox) (% abs.) ([3]; 9 months): 0.68 % abs.
content of MeFox ([3]; already before reaching 9 months (Table 7)): over 0.6%
change of water content ([4]; relative humidity from 20 to 75% r.h.): more than 6%
change of water content (DVS) ([4]; within the tested range, 0 to 75% r.h.): more than 6%
Structure (SMILES): CN1c2c([nH]c(N)nc2=O)NC[C@@H]1CNc1ccc(C(=O)N[C@@H](CCC(=O)[O-])C(=O)[O-])cc1.[Ca+2]
